Measurements taken from patent publication US9409866B2, “Pyridine-2-amides useful as CB2 agonists” (Hoffmann-La Roche Inc., priority 2012, dated 2016).
Where two headings read alike, the source gives them in different places.

Key:
human CB2 receptors = human CB2 receptors (Homo sapiens (Human), UniProt P34972); test: functional cAMP assay, CHO cells expressing human CB2; assay type: cell-based
Protocol: (§1) CHO cells expressing human CB1 or CB2 receptors are seeded 17-24 hours prior to the experiment 50.000 cells per well in a black 96 well plate with flat clear bottom (Corning Costar #3904) in DMEM (Invitrogen No. 31331), 1×HT supplement, with 10% fetal calf serum and incubated at 5% CO2 and 37° C. in a humidified incubator. The growth medium was exchanged with Krebs Ringer Bicarbonate buffer with 1 mM IBMX and incubated at 30° C. for 30 min. Compounds were added to a final assay volume of 100 μl and incubated for 30 min at 30° C. Using the cAMP-Nano-TRF detection kit the assay (Roche Diagnostics) was stopped by the addition of 50 μl lysis reagent (Tris, NaCl, 1.5% Triton X100, 2.5% NP40, 10% NaN3) and 50 μl detection solutions (20 μM mAb Alexa700-cAMP 1:1, and 48 μM Ruthenium-2-AHA-cAMP) and shaken for 2 h at room temperature. The time-resolved energy transfer is measured by a TRF reader (Evotec Technologies GmbH), equipped with a ND:YAG laser as excitation source. The plate is measured twice with the excitation at 355 nm and at the emission with a delay of 100 ns and a gate of 100 ns, total exposure time 10 s at 730 (bandwidth 30 nm) or 645 nm (bandwidth 75 nm), respectively. The FRET signal is calculated as follows: FRET=T730-Alexa730-P(T645-B645) with P=Ru730-B730/Ru645-B645, where T730 is the test well measured at 730 nM, T645 is the test well measured at 645 nm, B730 and B645 are the buffer controls at 730 nm and 645 nm, respectively. cAMP content is determined from the function of a standard curve spanning from 10 μM to 0.13 nM cAMP.
(§2) EC50 values were determined using Activity Base analysis (ID Business Solution, Limited). The EC50 values for a wide range of cannabinoid agonists generated from this assay were in agreement with the values published in the scientific literature.

human CB1 receptors = human CB1 receptors (Homo sapiens (Human), UniProt P21554); test: functional cAMP assay, CHO cells expressing human CB1; assay type: cell-based
Protocol: as §1, §2

[1] = functional cAMP assay, CHO cells expressing human CB1; read-out: Human CB1 EC50
[2] = Human CB1 EC50 (uM), functional cAMP assay, CHO cells expressing human CB1
[3] = read-out: Human CB1 EC50; functional cAMP assay, CHO cells expressing human CB1

human CB1 receptors, sequence (P21554 whole entry): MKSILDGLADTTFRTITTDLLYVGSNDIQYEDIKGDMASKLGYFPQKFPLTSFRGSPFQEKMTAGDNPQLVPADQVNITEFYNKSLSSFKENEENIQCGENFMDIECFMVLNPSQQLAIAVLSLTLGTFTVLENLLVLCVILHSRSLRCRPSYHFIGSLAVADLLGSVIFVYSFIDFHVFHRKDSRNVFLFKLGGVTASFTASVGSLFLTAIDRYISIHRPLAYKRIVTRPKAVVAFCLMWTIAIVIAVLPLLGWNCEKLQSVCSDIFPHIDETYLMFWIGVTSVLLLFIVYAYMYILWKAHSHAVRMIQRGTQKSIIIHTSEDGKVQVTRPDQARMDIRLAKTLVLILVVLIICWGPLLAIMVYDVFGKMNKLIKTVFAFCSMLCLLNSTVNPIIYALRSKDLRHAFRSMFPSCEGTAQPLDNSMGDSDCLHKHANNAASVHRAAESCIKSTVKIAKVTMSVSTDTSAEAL
human CB2 receptors, sequence (P34972 whole entry): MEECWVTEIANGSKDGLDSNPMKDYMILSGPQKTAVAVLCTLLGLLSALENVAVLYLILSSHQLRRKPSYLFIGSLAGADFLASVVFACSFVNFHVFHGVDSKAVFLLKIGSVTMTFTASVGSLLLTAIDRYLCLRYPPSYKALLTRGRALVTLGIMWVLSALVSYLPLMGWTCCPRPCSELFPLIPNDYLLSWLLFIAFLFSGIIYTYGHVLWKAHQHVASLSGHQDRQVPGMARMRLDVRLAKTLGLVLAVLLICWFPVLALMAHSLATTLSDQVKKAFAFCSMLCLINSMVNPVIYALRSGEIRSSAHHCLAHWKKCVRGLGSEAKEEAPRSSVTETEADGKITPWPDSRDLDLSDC

`Cc1nc(C(C)(NC(=O)c2cc(OCC(F)(F)F)c(N3CC(F)(F)C3)cn2)C2CC2)no1` (stereo not shown) [Example 78, 5-(3,3-Difluoro-azetidin-1-yl)-4-(2,2,2-trifluoro-ethoxy)-pyridine-2-carboxylic acid [1-cyclopropyl-1-(5-methyl-[1,2,4]oxadiazol-3-yl)-ethyl]-amide] was tested, and the EC50 (human CB2 receptors; read-out: Human CB2 EC50) was 0.0061 µM and the EC50 (human CB1 receptors; [1]) was greater than 10 µM.

`Cc1nc(C(C)(CS(C)(=O)=O)NC(=O)c2cc(O[C@@H](C)C(F)(F)F)c(C3CC3)cn2)no1` (stereo partly drawn) [Example 103, 5-Cyclopropyl-4-((S)-2,2,2-trifluoro-1-methyl-ethoxy)-pyridine-2-carboxylic acid [2-methanesulfonyl-1-methyl-1-(5-methyl-[1,2,4]oxadiazol-3-yl)-ethyl]-amide] gave an EC50 (human CB2 receptors; read-out: Human CB2 EC50) of 0.0034 µM and an EC50 (human CB1 receptors; [1]) of 0.48 µM.

For `CC(C)(C)C(NC(=O)c1cc(OCC2CC2)c(C2CC2)cn1)c1nccs1` (stereo not shown) [Example 43, 5-Cyclopropyl-4-cyclopropylmethoxy-pyridine-2-carboxylic acid (2,2-dimethyl-1-thiazol-2-yl-propyl)-amide], the EC50 (human CB2 receptors; read-out: Human CB2 EC50) was 0.0032 µM and the EC50 (human CB1 receptors; [1]) was greater than 10 µM.

`CC(C)(O)CNC(=O)c1cc(OCC2CC2)c(C2CC2)cn1` [Example 59, 5-Cyclopropyl-4-cyclopropylmethoxy-pyridine-2-carboxylic acid (2-hydroxy-2-methyl-propyl)-amide] gave an EC50 (human CB2 receptors; read-out: Human CB2 EC50) of 0.0816 µM and an EC50 (human CB1 receptors; [1]) greater than 10 µM.

Compound `Cc1nc(C(C)(CC2CC2)NC(=O)c2cc(O[C@@H](C)C(F)(F)F)c(C3CC3)cn2)no1` (stereo partly drawn) [Example 100, 5-Cyclopropyl-4-((S)-2,2,2-trifluoro-1-methyl-ethoxy)-pyridine-2-carboxylic acid [2-cyclopropyl-1-methyl-1-(5-methyl-[1,2,4]oxadiazol-3-yl)-ethyl]-amide] has an EC50 (human CB2 receptors; read-out: Human CB2 EC50) of 0.0006 µM and an EC50 (human CB1 receptors; [1]) greater than 10 µM.

With `CC(CF)Oc1cc(C(=O)NC(C)(CC(N)=O)C2CC2)ncc1C1CC1` (single isomer, unassigned) [Example 302, N-(4-amino-2-cyclopropyl-4-oxobutan-2-yl)-5-cyclopropyl-4-(1-fluoropropan-2-yloxy)picolinamide] the EC50 (human CB2 receptors; Human CB2 EC50 (uM)) was 0.001 µM and the EC50 (human CB1 receptors; [2]) was 0.869 µM.

With `CC(C)C(CCO)NC(=O)c1cc(OCC2CC2)c(Cl)cn1` (stereo not shown) [Example 18, 5-Chloro-4-cyclopropylmethoxy-pyridine-2-carboxylic acid [1-(2-hydroxy-ethyl)-2-methyl-propyl]-amide] the EC50 (human CB2 receptors; read-out: Human CB2 EC50) was 0.149 µM and the EC50 (human CB1 receptors; [1]) was greater than 10 µM.

`Cc1nnc(C(NC(=O)c2cc(OCC(F)(F)F)c(C3CC3)cn2)C(C)(C)C)o1` (single isomer, unassigned) [Example 179, 5-cyclopropyl-N-[2,2-dimethyl-1-(5-methyl-1,3,4-oxadiazol-2-yl)propyl]-4-(2,2,2-trifluoroethoxy)pyridine-2-carboxamide] showed an EC50 (human CB2 receptors; Human CB2 EC50 (uM)) of 0.0351 µM and an EC50 (human CB1 receptors; [3]) greater than 10 µM.

Compound `CC(C)(C#N)NC(=O)c1cc(OCC2CC2)c(Cl)cn1` [Example 8, 5-Chloro-4-cyclopropylmethoxy-pyridine-2-carboxylic acid (cyano-dimethyl-methyl)-amide] has an EC50 (human CB2 receptors; read-out: Human CB2 EC50) of 0.159 µM and an EC50 (human CB1 receptors; [1]) greater than 10 µM.

Compound `Cc1nc(C(C)(CC2CC2)NC(=O)c2cc(O[C@@H](C)C(F)(F)F)c(C3CCC3)cn2)no1` (stereo partly drawn) [Example 121, 5-cyclobutyl-N-[1-cyclopropyl-2-(5-methyl-1,2,4-oxadiazol-3-yl)propan-2-yl]-4-[(2S)-1,1,1-trifluoropropan-2-yl]oxypyridine-2-carboxamide] has an EC50 (human CB2 receptors; read-out: Human CB2 EC50) of 0.0006 µM and an EC50 (human CB1 receptors; [1]) greater than 10 µM.

`CCC(CC)(NC(=O)c1cc(OCC2(C)COC2)c(C2CC2)cn1)C(=O)NCCCF` [Example 234, 5-cyclopropyl-N-[3-(3-fluoropropylcarbamoyl)pentan-3-yl]-4-[(3-methyloxetan-3-yl)methoxy]pyridine-2-carboxamide] showed an EC50 (human CB2 receptors; read-out: Human CB2 EC50) of 0.455 µM and an EC50 (human CB1 receptors; [1]) greater than 10 µM.

`Cc1nc(C(C)(CC2CC2)NC(=O)c2cc(OC(C)CF)c(C3CC3)cn2)no1` (single isomer, unassigned) [Example 287, 5-cyclopropyl-N-(1-cyclopropyl-2-(5-methyl-1,2,4-oxadiazol-3-yl)propan-2-yl)-4-(1-fluoropropan-2-yloxy)picolinamide] gave an EC50 (human CB2 receptors; Human CB2 EC50 (uM)) of 0.0014 µM and an EC50 (human CB1 receptors; [2]) greater than 10 µM.

`CC(C)(C)C(NC(=O)c1cc(OCC(F)(F)F)c(C2CC2)cn1)c1nn[nH]n1` (stereo not shown) [Example 162, 5-cyclopropyl-N-[2,2-dimethyl-1-(1H-tetrazol-5-yl)propyl]-4-(2,2,2-trifluoroethoxy)pyridine-2-carboxamide] was tested, and the EC50 (human CB2 receptors; read-out: Human CB2 EC50) was 0.0717 µM and the EC50 (human CB1 receptors; [1]) was greater than 10 µM.

In the case of `Cc1nc(C(C)(CC2CC2)NC(=O)c2cc(OCC(F)(F)F)c(C3CCC3)cn2)no1` (single isomer, unassigned) [Example 116, 5-cyclobutyl-N-[1-cyclopropyl-2-(5-methyl-1,2,4-oxadiazol-3-yl)propan-2-yl]-4-(2,2,2-trifluoroethoxy)pyridine-2-carboxamide], the EC50 (human CB2 receptors; Human CB2 EC50 (uM)) is reported as 0.0041 µM and the EC50 (human CB1 receptors; [2]) is reported as greater than 10 µM.

With `CC(CC(N)=O)(NC(=O)c1cc(OCC(F)(F)F)c(C2(F)CCC2)cn1)C1CC1` (single isomer, unassigned) [Example 310, N-[4-amino-2-cyclopropyl-4-oxobutan-2-yl]-5-(1-fluorocyclobutyl)-4-(2,2,2-trifluoroethoxy)pyridine-2-carboxamide] the EC50 (human CB2 receptors; Human CB2 EC50 (uM)) was 0.0154 µM and the EC50 (human CB1 receptors; [2]) was 2.44 µM.

Work on `CC(C)C[C@](C)(CO)NC(=O)c1cc(OCC2CC2)c(Cl)cn1` [Example 28, (+)-5-Chloro-4-cyclopropylmethoxy-pyridine-2-carboxylic acid (1-hydroxymethyl-1,3-dimethyl-butyl)-amide] yielded an EC50 (human CB2 receptors; read-out: Human CB2 EC50) of 0.0263 µM and an EC50 (human CB1 receptors; [1]) greater than 10 µM.

For `CC(C)[C@](C)(CO)NC(=O)c1cc(OCC2CCC2)c(Cl)cn1` [Example 12, 5-Chloro-4-cyclobutylmethoxy-pyridine-2-carboxylic acid ((R)-1-hydroxymethyl-1,2-dimethyl-propyl)-amide], the EC50 (human CB2 receptors; read-out: Human CB2 EC50) was 0.0092 µM and the EC50 (human CB1 receptors; [1]) was greater than 10 µM.

With `CNC(=O)C(NC(=O)c1cc(OCC(F)(F)F)c(C2CC2)cn1)C(C)(C)C` (single isomer, unassigned) [Example 224, 5-cyclopropyl-N-[3,3-dimethyl-1-(methylamino)-1-oxobutan-2-yl]-4-(2,2,2-trifluoroethoxy)pyridine-2-carboxamide] the EC50 (human CB2 receptors; Human CB2 EC50 (uM)) was 0.0573 µM and the EC50 (human CB1 receptors; [2]) was greater than 10 µM.

`CC(C)(C)NC(=O)c1cc(OCC(F)(F)F)c(C2CC2)cn1` [Example 70, 5-Cyclopropyl-4-(2,2,2-trifluoro-ethoxy)-pyridine-2-carboxylic acid tert-butylamide] showed an EC50 (human CB2 receptors; read-out: Human CB2 EC50) of 0.0104 µM and an EC50 (human CB1 receptors; [1]) greater than 10 µM.

Work on `CC(C)CC(C)(NC(=O)c1cc(OCC(F)(F)F)c(C2CC2)cn1)C(N)=O` (stereo not shown) [Example 82, 5-Cyclopropyl-4-(2,2,2-trifluoro-ethoxy)-pyridine-2-carboxylic acid (1-carbamoyl-1,3-dimethyl-butyl)-amide] yielded an EC50 (human CB2 receptors; read-out: Human CB2 EC50) of 0.0805 µM and an EC50 (human CB1 receptors; [1]) greater than 10 µM.

For `Cc1nc(C(C)(CO)NC(=O)c2cc(OCC(F)(F)F)c(C3CC3)cn2)no1` (stereo not shown) [Example 113, 5-cyclopropyl-N-[1-hydroxy-2-(5-methyl-1,2,4-oxadiazol-3-yl)propan-2-yl]-4-(2,2,2-trifluoroethoxy)pyridine-2-carboxamide], the EC50 (human CB2 receptors; read-out: Human CB2 EC50) was 0.263 µM and the EC50 (human CB1 receptors; [1]) was greater than 10 µM.

`O=C(NC(c1ccccn1)C(F)(F)F)c1cc(OCC(F)(F)F)c(C2CC2)cn1` (stereo not shown) [Example 51, 5-Cyclopropyl-4-(2,2,2-trifluoro-ethoxy)-pyridine-2-carboxylic acid (2,2,2-trifluoro-1-pyridin-2-yl-ethyl)-amide] gave an EC50 (human CB2 receptors; read-out: Human CB2 EC50) of 0.0122 µM and an EC50 (human CB1 receptors; [1]) greater than 10 µM.

`C[C@H](Oc1cc(C(=O)NC2(CC(N)=O)CS(=O)(=O)C2)ncc1C1(F)CCC1)C(F)(F)F` [Example 305, N-[3-(2-amino-2-oxoethyl)-1,1-dioxothietan-3-yl]-5-(1-fluorocyclobutyl)-4-[(2S)-1,1,1-trifluoropropan-2-yl]oxypyridine-2-carboxamide] showed an EC50 (human CB2 receptors; read-out: Human CB2 EC50) of 0.0051 µM and an EC50 (human CB1 receptors; [1]) greater than 10 µM.

For `CNC(=O)CC(C)(NC(=O)c1cc(OCC(F)(F)F)c(C2CC2)cn1)C1CC1` (single isomer, unassigned) [Example 242, 5-cyclopropyl-N-[2-cyclopropyl-4-(methylamino)-4-oxobutan-2-yl]-4-(2,2,2-trifluoroethoxy)pyridine-2-carboxamide], the EC50 (human CB2 receptors; Human CB2 EC50 (uM)) was 0.237 µM and the EC50 (human CB1 receptors; [3]) was greater than 10 µM.

Work on `Cn1nnnc1C(NC(=O)c1cc(OCC(F)(F)F)c(C2CC2)cn1)C(C)(C)C` (stereo not shown) [Example 164, 5-cyclopropyl-N-[2,2-dimethyl-1-(1-methyltetrazol-5-yl)propyl]-4-(2,2,2-trifluoroethoxy)pyridine-2-carboxamide] yielded an EC50 (human CB2 receptors; Human CB2 EC50 (uM)) of 0.0168 µM.
